Laboratory results from ChEMBL document CHEMBL1149610, “Bicyclo[2.2.2]octyl esters of dialkylamino acids as antiprotozoals” (Bioorg Med Chem, 2007).

Key:
[1] = system: Trypanosoma brucei rhodesiense; test: Antitrypanosomal activity against Trypanosoma brucei rhodesiense after 72 hrs by microplate assay; type: functional, organism-based
[2] = Selectivity index, ratio of IC50 for rat L6 cells to IC50 for Trypanosoma brucei rhodesiense; type: functional
L6 = test: Cytotoxicity against rat L6 cells after 72 hrs by microplate assay; type: cell-based; details: L6, 72 h
[3] = Selectivity index, ratio of IC50 for rat L6 cells to IC50 for Plasmodium falciparum K1; type: functional
Plasmodium falciparum = test: Antiplasmodial activity against chloroquine, pyrimethamine-resistant Plasmodium falciparum K1 after 48 hrs; type: functional, organism-based; details: K1, 48 h

| Compound | IC50 [1] [nM] | Ratio IC50 [2] | IC50 (L6) [nM] | Ratio IC50 [3] | IC50 (Plasmodium falciparum) [nM] |
| --- | --- | --- | --- | --- | --- |
| O=C(OC1CC2(N3CCCC3)CC(c3ccccc3)C1C(c1ccccc1)C2)c1ccc2c(c1)OCO2 (racemic) | 820 | 6.89 | 5650 | 14.49 | 390 |
| CN(C)C12CC(OC(=O)CN3CCCC3)C(C(c3ccccc3)C1)C(c1ccccc1)C2 (racemic) |  | 155.5 |  | 46 |  |
| O=C(CN1CCCCC1)OC1CC2(N3CCCC3)CC(c3ccccc3)C1C(c1ccccc1)C2 (racemic) |  | 38.43 |  | 38.43 |  |
| C[C@@H]1CC[C@H]2[C@@H](C)C(=O)O[C@@H]3O[C@@]4(C)CC[C@@H]1[C@]32OO4 [ARTEMISININ] |  |  |  |  | 6.4 |
| CN(C)C12CC(O)C(C(c3ccccc3)C1)C(c1ccccc1)C2 (racemic) |  | 44.92 |  | <8.53 |  |
| CN(C)C12CC(OC(=O)C(C)(C)C)C(C(c3ccccc3)C1)C(c1ccccc1)C2 (racemic) | 620 | 8.16 | 5060 | 12.05 | 420 |
| O=C(/C=C/c1ccccc1)OC1CC2(N3CCCCC3)CC(c3ccccc3)C1C(c1ccccc1)C2 (racemic) | 1410 | 7.43 | 10500 | 23.27 | 450 |
| CC(=O)OC1CC2(N(C)C)CC(c3ccccc3)C1C(c1ccccc1)C2 (racemic) | 4750 |  |  |  | > 12500 |
| CC(=O)OC1CC2(N3CCCCC3)CC(c3ccccc3)C1C(c1ccccc1)C2 (racemic) | 9890 |  |  |  | > 11000 |
| CN(C)C12CC(OC(=O)/C=C/c3ccccc3)C(C(c3ccccc3)C1)C(c1ccccc1)C2 (racemic) | 830 | 4.6 | 3820 | 5.54 | 690 |
| CC(C)(C)C(=O)OC1CC2(N3CCCC3)CC(c3ccccc3)C1C(c1ccccc1)C2 (racemic) | 1380 | 5.52 | 7620 | 7.7 | 990 |
| CN(C)C12CC(OC(=O)CN3CCCCC3)C(C(c3ccccc3)C1)C(c1ccccc1)C2 (racemic) |  | 14.7 |  | 56.27 |  |
| CCN(CC)CC(=O)OC1CC2(N3CCCCC3)CC(c3ccccc3)C1C(c1ccccc1)C2 (racemic) |  | 42.71 |  | 95.68 |  |
| O=C(CN1CCCCC1)OC1CC2(N3CCCCC3)CC(c3ccccc3)C1C(c1ccccc1)C2 (racemic) |  | 69.41 |  | 335.5 |  |
| O=C(CN1CCCC1)OC1CC2(N3CCCCC3)CC(c3ccccc3)C1C(c1ccccc1)C2 (racemic) |  | 51.19 |  | 34.85 |  |
| O=C(/C=C/c1ccccc1)OC1CC2(N3CCCC3)CC(c3ccccc3)C1C(c1ccccc1)C2 (racemic) | 1040 | 3.37 | 3500 | 5.56 | 630 |
| CN(C)C12CC(OC(=O)c3ccc4c(c3)OCO4)C(C(c3ccccc3)C1)C(c1ccccc1)C2 (racemic) | 980 | 5.43 | 5320 | 15.65 | 340 |
| CCN(CC)CC(=O)OC1CC2(N3CCCC3)CC(c3ccccc3)C1C(c1ccccc1)C2 (racemic) |  | 68.06 |  | 245 |  |
| CC(=O)OC1CC2(N3CCCC3)CC(c3ccccc3)C1C(c1ccccc1)C2 (racemic) | 4930 |  |  |  | > 11700 |
| O=C(OC1CC2(N3CCCCC3)CC(c3ccccc3)C1C(c1ccccc1)C2)c1ccc2c(c1)OCO2 (racemic) | 2510 | 5.07 | 12700 | 23.15 | 550 |
| O=C(CN1CCCC1)OC1CC2(N3CCCC3)CC(c3ccccc3)C1C(c1ccccc1)C2 (racemic) | 230 | 186.7 | 42900 | 61.34 | 700 |
| CC(C)(C)C(=O)OC1CC2(N3CCCCC3)CC(c3ccccc3)C1C(c1ccccc1)C2 (racemic) | 2690 | 4.46 | 12000 | 1.51 | 7930 |
| CCN(CC)CC(=O)OC1CC2(N(C)C)CC(c3ccccc3)C1C(c1ccccc1)C2 (racemic) |  | 49.41 |  | 11.08 |  |
